Measurements as given in US10760110B2, “Antibiotic testing and screening system” (priority 2017, dated 2020).
Where two headings read alike, the source gives them in different places.

How the values were obtained:
Details in all cases: Klebsiella pneumoniae
[1] = tested on: K. pneumoniae NVT1001 strains with carbapenemase plasmids; experiment: Etest MIC of β-lactams, OmpK35/36 loss, ΔramR and/or carbapenemase (Table 9); assay type: cell-based, Klebsiella pneumoniae
How it was run: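 Etest MICs, with values between standard dilutions rounded up to the next two-fold step, were measured in K. pneumoniae NVT1001 carrying PCR-cloned resistance genes on pACYC177 or pACYC184 plasmids. Interpretation used CLSI 2017 breakpoints, CLSI 2015 for cephalothin and EUCAST 2017 for moxifloxacin. For the blaOXA-48 strain, ceftazidime and cefotaxime were additionally tested by CLSI broth microdilution.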

[2] = tested on: K. pneumoniae NVT1001 ΔramRΔompK35/36 mutant and its revertants; experiment: Etest MIC, ΔramRΔompK35/36 mutant and its revertants (Table 7); assay type: cell-based
[3] = tested on: K. pneumoniae NVT1001 and its ΔompK35/36 and/or ΔramR mutants; experiment: Etest MIC, OmpK35/36 loss and AcrAB-TolC overexpression (ΔramR) strains (Table 6); assay type: cell-based, Klebsiella pneumoniae
How it was run: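 First, Etest determined each antibiotic's MIC, and intermediate results were adjusted upward to the next doubling dilution. Next, ceftazidime and cefotaxime were titrated in broth according to CLSI recommendations. Finally, results were interpreted with CLSI 2017 breakpoints, substituting CLSI 2015 for cephalothin and EUCAST 2017 for moxifloxacin.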

[4] = IMP-8 on pACYC177, WT (NVT1001), read-out: MIC
[5] = IMP-8 on pACYC177, Δ35 (ΔompK35 mutant)
[6] = IMP-8 on pACYC177, Δ35/36 (ΔompK35/36 mutant)
[7] = IMP-8 on pACYC177, Δ36 (ΔompK36 mutant)
[8] = IMP-8 on pACYC177, ΔramR mutant
[9] = IMP-8 on pACYC177, ΔramRΔ35 (ΔramRΔompK35 mutant)
[10] = IMP-8 on pACYC177, ΔramRΔ35/36 (ΔramRΔompK35/36 mutant)
[11] = IMP-8 on pACYC177, ΔramRΔ36 (ΔramRΔompK36 mutant)
[12] = KPC-2 on pACYC177, WT (NVT1001), read-out: MIC
[13] = KPC-2 on pACYC177, Δ35 (ΔompK35 mutant)
[14] = KPC-2 on pACYC177, Δ35/36 (ΔompK35/36 mutant)
[15] = KPC-2 on pACYC177, Δ36 (ΔompK36 mutant)
[16] = KPC-2 on pACYC177, ΔramR mutant
[17] = KPC-2 on pACYC177, ΔramRΔ35 (ΔramRΔompK35 mutant)
[18] = KPC-2 on pACYC177, ΔramRΔ35/36 (ΔramRΔompK35/36 mutant)
[19] = KPC-2 on pACYC177, ΔramRΔ36 (ΔramRΔompK36 mutant)
[20] = KPC-3 on pACYC177, WT (NVT1001), read-out: MIC
[21] = KPC-3 on pACYC177, Δ35 (ΔompK35 mutant)
[22] = KPC-3 on pACYC177, Δ35/36 (ΔompK35/36 mutant)
[23] = KPC-3 on pACYC177, Δ36 (ΔompK36 mutant)
[24] = KPC-3 on pACYC177, ΔramR mutant
[25] = KPC-3 on pACYC177, ΔramRΔ35 (ΔramRΔompK35 mutant)
[26] = KPC-3 on pACYC177, ΔramRΔ35/36 (ΔramRΔompK35/36 mutant)
[27] = KPC-3 on pACYC177, ΔramRΔ36 (ΔramRΔompK36 mutant)
[28] = NDM-1 on pACYC177, WT (NVT1001), read-out: MIC
[29] = NDM-1 on pACYC177, Δ35 (ΔompK35 mutant)
[30] = NDM-1 on pACYC177, Δ35/36 (ΔompK35/36 mutant)
[31] = NDM-1 on pACYC177, Δ36 (ΔompK36 mutant)
[32] = NDM-1 on pACYC177, ΔramR mutant
[33] = NDM-1 on pACYC177, ΔramRΔ35 (ΔramRΔompK35 mutant)
[34] = NDM-1 on pACYC177, ΔramRΔ35/36 (ΔramRΔompK35/36 mutant)
[35] = NDM-1 on pACYC177, ΔramRΔ36 (ΔramRΔompK36 mutant)
[36] = OXA-48 on pACYC177, WT (NVT1001), read-out: MIC
[37] = OXA-48 on pACYC177, Δ35 (ΔompK35 mutant)
[38] = OXA-48 on pACYC177, Δ35/36 (ΔompK35/36 mutant)
[39] = OXA-48 on pACYC177, Δ36 (ΔompK36 mutant)
[40] = OXA-48 on pACYC177, ΔramR mutant
[41] = OXA-48 on pACYC177, ΔramRΔ35 (ΔramRΔompK35 mutant)
[42] = OXA-48 on pACYC177, ΔramRΔ35/36 (ΔramRΔompK35/36 mutant)
[43] = OXA-48 on pACYC177, ΔramRΔ36 (ΔramRΔompK36 mutant)
[44] = VIM-1 on pACYC177, WT (NVT1001), read-out: MIC
[45] = VIM-1 on pACYC177, Δ35 (ΔompK35 mutant)
[46] = VIM-1 on pACYC177, Δ35/36 (ΔompK35/36 mutant)
[47] = VIM-1 on pACYC177, Δ36 (ΔompK36 mutant)
[48] = VIM-1 on pACYC177, ΔramR mutant
[49] = VIM-1 on pACYC177, ΔramRΔ35 (ΔramRΔompK35 mutant)
[50] = VIM-1 on pACYC177, ΔramRΔ35/36 (ΔramRΔompK35/36 mutant)
[51] = VIM-1 on pACYC177, ΔramRΔ36 (ΔramRΔompK36 mutant)
[52] = no supplemental plasmid, WT (NVT1001), read-out: MIC
[53] = no supplemental plasmid, Δ35 (ΔompK35 mutant)
[54] = no supplemental plasmid, Δ35/36 (ΔompK35/36 mutant)
[55] = no supplemental plasmid, Δ36 (ΔompK36 mutant)
[56] = no supplemental plasmid, ΔramR mutant
[57] = no supplemental plasmid, ΔramRΔ35 (ΔramRΔompK35 mutant)
[58] = no supplemental plasmid, ΔramRΔ35/36 (ΔramRΔompK35/36 mutant)
[59] = no supplemental plasmid, ΔramRΔ36 (ΔramRΔompK36 mutant)
[60] = ΔramRΔompK35/36::ompK35/36 revertant
[61] = ΔramRΔompK35/36::ompK35 revertant
[62] = ΔramRΔompK35/36::ompK36 revertant
[63] = ΔramRΔompK35/36::ramR revertant
[64] = ΔramRΔompK35/36::ramR::ompK35/36 revertant
[65] = ΔramRΔompK35/36::ramR::ompK35 revertant
[66] = ΔramRΔompK35/36::ramR::ompK36 revertant
[67] = ΔramRΔ35/36, ΔramRΔompK35/36 mutant

Measured: MIC

C[C@@H](O)[C@H]1C(=O)N2C(C(=O)O)=C(S[C@@H]3CN[C@H](C(=O)Nc4cccc(C(=O)O)c4)C3)[C@H](C)[C@H]12 [Ertapenem]
4 µg/mL: [1]; [5] | [1]; [8] | [1]; [9] | [1]; [36] | [1]; [45] | [1]; [48] | [1]; [49] | [1]; [58] | [1]; [59] | [2]; [61] | [2]; ΔramRΔompK35/36 mutant | [3]; [67] | [3]; ΔramRΔ36, ΔramRΔompK36 mutant
8 µg/mL: [1]; [37] | [1]; [39] | [1]; [40] | [1]; [41]
0.125 µg/mL: [1]; [56] | [1]; [57] | [2]; [60] | [2]; [62] | [3]; ΔramR mutant | [3]; ΔramRΔ35, ΔramRΔompK35 mutant
0.03 µg/mL: [1]; [53] | [1]; [55] | [2]; [65] | [2]; [66] | [3]; Δ35, ΔompK35 mutant | [3]; Δ36, ΔompK36 mutant
32 µg/mL: [1]; [12] | [1]; [13] | [1]; [15] | [1]; [20] | [1]; [21] | [1]; [23] | [1]; [24] | [1]; [25] | [1]; [28]
1 µg/mL: [2]; [63]
2 µg/mL: [1]; [4] | [1]; [7] | [1]; [44] | [1]; [47] | [1]; [54] | [3]; Δ35/36, ΔompK35/36 mutant
0.015 µg/mL: [1]; [52] | [2]; [64] | [3]; WT, NVT1001, read-out: MIC
> 32 µg/mL: [1]; [6] | [1]; [10] | [1]; [11] | [1]; [14] | [1]; [16] | [1]; [17] | [1]; [18] | [1]; [19] | [1]; [22] | [1]; [26] | [1]; [27] | [1]; [29] | [1]; [30] | [1]; [31] | [1]; [32] | [1]; [33] | [1]; [34] | [1]; [35] | [1]; [38] | [1]; [42] | [1]; [43] | [1]; [46] | [1]; [50] | [1]; [51]

C[C@@H](O)[C@H]1C(=O)N2C(C(=O)O)=C(SCCN=CN)C[C@H]12 [Imipenem]
0.5 µg/mL: [1]; [52] | [1]; [53] | [1]; [54] | [1]; [55] | [1]; [58] | [1]; [59] | [2]; [63] | [2]; [64] | [2]; ΔramRΔompK35/36 mutant | [3]; WT, NVT1001, read-out: MIC | [3]; Δ35, ΔompK35 mutant | [3]; Δ35/36, ΔompK35/36 mutant | [3]; Δ36, ΔompK36 mutant | [3]; [67] | [3]; ΔramRΔ36, ΔramRΔompK36 mutant
0.25 µg/mL: [1]; [56] | [1]; [57] | [2]; [60] | [2]; [61] | [2]; [62] | [2]; [65] | [2]; [66] | [3]; ΔramR mutant | [3]; ΔramRΔ35, ΔramRΔompK35 mutant
> 32 µg/mL: [1]; [6] | [1]; [10] | [1]; [11] | [1]; [12] | [1]; [13] | [1]; [14] | [1]; [15] | [1]; [16] | [1]; [17] | [1]; [18] | [1]; [19] | [1]; [21] | [1]; [22] | [1]; [23] | [1]; [26] | [1]; [27] | [1]; [28] | [1]; [29] | [1]; [30] | [1]; [31] | [1]; [32] | [1]; [33] | [1]; [34] | [1]; [35] | [1]; [38] | [1]; [42] | [1]; [43] | [1]; [46] | [1]; [47] | [1]; [50] | [1]; [51]
8 µg/mL: [1]; [7] | [1]; [39]
16 µg/mL: [1]; [44] | [1]; [48] | [1]; [49]
4 µg/mL: [1]; [4] | [1]; [5] | [1]; [8] | [1]; [9] | [1]; [36] | [1]; [37] | [1]; [40] | [1]; [41]
32 µg/mL: [1]; [20] | [1]; [24] | [1]; [25] | [1]; [45]
